From patent US8802720B2, “Acylamino-substituted fused cyclopentanecarboxylic acid derivatives and their use as pharmaceuticals” (SANOFI, priority 2008, dated 2014)

Target: human Edg-2 receptor (LPA1 receptor) (Homo sapiens, UniProt Q92633)
Assay: Edg-2 receptor inhibition by FLIPR calcium fluorescence measurement (LPA-mediated calcium liberation)
Assay type: cell-based
Settings: CHO cells stably overexpressing human Edg-2 receptor; LPA 18:1 100 nM; fluo-4 fluorescence; triplicate; read-out: Inhibitory concentrations IC50 for inhibition of the Edg-2 receptor
Description: A) Determination of Edg-2 Receptor Inhibition by Fluorescence Imaging Plate Reader (FLIPR) Measurements
The inhibition of the Edg-2 receptor (LPA1 receptor) by the compounds of the invention was quantified by the inhibitory effect on the LPA-mediated calcium liberation in a cell-based calcium fluorescence assay by use of Chinese hamster ovarian (CHO) cells in which the human Edg-2 receptor was stably overexpressed (FIp-In system, Invitrogen). […] Changes in intracellular calcium were determined by fluorescence measurement with the calcium-sensitive dye fluo-4 (Invitrogen) in a fluorescence imaging plate reader (FLIPR, […]).
CHO cells stably overexpressing the human Edg-2 receptor were seeded (40.000 per well) in black clear-bottomed poly-D-lysine-coated 96 well plates (Becton Dickinson, Biocoat cellware) approximately 18-24 h prior to the experiments. Cells were grown in an incubator at 37° C., 5% carbon dioxide and 95% humidity in cell culture media based on F-12 glutamax media (Gibco, #31765) supplemented with 1% (vol/vol) penicilline/streptomycine (PAN, #P06-07100), 10% (vol/vol) fetal calf serum (FCS, PAA, #A15-151) and hygromycin B (Invitrogen, #10687-010) 300 mg/l (final concentrations).
Prior to the FLIPR experiment, cells were loaded with fluo-4 acetoxymethyl ester (fluo-4 AM, Invitrogen, #F14202) for 60 min in an incubator at 37° C., 5% carbon dioxide and 95% humidity in dye-loading buffer consisting of Hanks' Balanced Salt Solution (HBSS, Invitrogen, #14065049) supplemented with fluo-4 AM at 2 μM (all data given for final concentration), Pluronic® F-127 0.05% (vol/vol) (Invitrogen, #P-3000 MP), HEPES 20 mM (Gibco, #15630), probenecid 2.5 mM (Sigma, #P-8761) and bovine serum albumin 0.05% (BSA, Sigma, #A-6003), adjusted to pH 7.5 with sodium hydroxide. During cell loading, fluo-4 AM is cleaved by intracellular esterase resulting in trapping of the dye fluo-4 within the cells. Loading was terminated by washing of the cells in a cell washer (Tecan Power washer) three times with the buffer specified afore but without fluo-4 AM and BSA. This latter buffer was also used as the buffer in the subsequent cell fluorescence measurements.
The dye-loaded and washed cells were pre-incubated for approximately 5 min with various concentrations of the test compound added as a solution in DMSO (0.3% vol/vol maximum final concentration of DMSO), or with DMSO in the respective concentration only (positive control). Subsequent addition of LPA (18:1, 1-oleoyl-sn-glycerol 3-phosphate; 100 nM final concentration) leads to liberation of intracellular calcium from internal stores resulting in a large transient increase of the fluo-4 fluorescence signal which was monitored over approximately 3 min. The percent inhibition caused by the test compound was determined from the maximum fluorescence response after LPA addition to cells pre-incubated with the compound as compared to the maximum fluorescence response after LPA addition to cells pre-incubated with DMSO only. All fluorescence values were corrected for the baseline fluorescence values obtained with cells which were pre-incubated with DMSO only and were not treated with LPA (baseline control). All measurements were performed in triplicate. From the percent inhibitions the inhibitory concentration IC50 was determined.

Sequence of human Edg-2 receptor (LPA1 receptor) (Q92633 whole entry): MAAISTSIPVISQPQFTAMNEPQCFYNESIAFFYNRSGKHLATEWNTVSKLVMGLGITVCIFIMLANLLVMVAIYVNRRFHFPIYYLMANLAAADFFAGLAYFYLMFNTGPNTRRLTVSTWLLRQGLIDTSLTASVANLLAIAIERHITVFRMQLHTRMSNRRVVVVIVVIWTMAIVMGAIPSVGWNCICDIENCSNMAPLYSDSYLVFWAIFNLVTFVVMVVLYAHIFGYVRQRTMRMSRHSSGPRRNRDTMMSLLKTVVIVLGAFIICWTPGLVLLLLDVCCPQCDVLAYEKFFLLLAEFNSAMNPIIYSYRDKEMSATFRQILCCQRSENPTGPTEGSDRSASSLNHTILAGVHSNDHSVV

IC50 | SMILES
1000 to 30000 nM | COc1ccc(C(=O)NC2(C(=O)O)Cc3ccccc3C2)cc1OCCc1cc(C)cc(C)c1 [Example 22]
< 100 nM | CCc1cccc(CCOc2cc(C(=O)NC3(C(=O)O)Cc4ccccc4C3)ccc2OC)c1 [Example 23]
< 100 nM | COc1ccc(C(=O)NC2(C(=O)O)Cc3ccccc3C2)cc1OCC1(c2cccc(C)c2)CC1 [Example 24]
< 100 nM | COc1ccc(C(=O)NC2(C(=O)O)Cc3ccccc3C2)cc1OCCc1cccc(C(C)C)c1 [Example 25]
1000 to 30000 nM | COc1ccc(C(=O)NC2(C(=O)O)Cc3ccccc3C2)cc1OCCc1ccc(C#N)cc1 [Example 26]
1000 to 30000 nM | COCCOCCOc1cc(C(=O)NC2(C(=O)O)Cc3ccccc3C2)ccc1OC [Example 28]
1000 to 30000 nM | CCOc1ccc(COc2cc(C(=O)NC3(C(=O)O)Cc4ccccc4C3)ccc2OC)cc1 [Example 29]
1000 to 30000 nM | COc1ccc(C(=O)NC2(C(=O)O)Cc3ccccc3C2)cc1OCCC1CCCCC1 [Example 30]
1000 to 30000 nM | COc1ccc(C(=O)NC2(C(=O)O)Cc3ccccc3C2)cc1OCCc1c[nH]c2ccccc12 [Example 32]
1000 to 30000 nM | COCCOc1cc(C(=O)NC2(C(=O)O)Cc3ccccc3C2)ccc1OC [Example 33]
1000 to 30000 nM | COc1ccc(C(=O)NC2(C(=O)O)Cc3ccccc3C2)cc1OCCCCc1ccccc1 [Example 34]
1000 to 30000 nM | COc1ccc(C(=O)NC2(C(=O)O)Cc3ccccc3C2)cc1OCC(C)C [Example 35]
1000 to 30000 nM | COc1ccc(C(=O)NC2(C(=O)O)Cc3ccccc3C2)cc1OCCC(C)C [Example 36]
1000 to 30000 nM | COc1ccc(C(=O)NC2(C(=O)O)Cc3ccccc3C2)cc1OCC(C)(C)C [Example 37]
1000 to 30000 nM | COc1ccc(C(=O)NC2(C(=O)O)Cc3ccccc3C2)cc1OCC1CCOC1 (stereo not drawn) [Example 38]
1000 to 30000 nM | COc1ccc(C(=O)NC2(C(=O)O)Cc3ccccc3C2)cc1OCc1ccc(Cl)cc1 [Example 39]

IC50 | SMILES
1000 to 30000 nM | COc1ccc(C(=O)NC2(C(=O)O)Cc3ccccc3C2)cc1OCc1ccc(C(C)(C)C)cc1 [Example 40]
1000 to 30000 nM | CCc1ccc(COc2cc(C(=O)NC3(C(=O)O)Cc4ccccc4C3)ccc2OC)cc1 [Example 41]
1000 to 30000 nM | COc1ccc(C(=O)NC2(C(=O)O)Cc3ccccc3C2)cc1OCC1CCCC1 [Example 42]
1000 to 30000 nM | COc1ccc(C(=O)NC2(C(=O)O)Cc3ccccc3C2)cc1OCCCC(C)C [Example 43]
1000 to 30000 nM | COc1ccc(C(=O)NC2(C(=O)O)Cc3ccccc3C2)cc1OCCc1cccc2ccccc12 [Example 44]
1000 to 30000 nM | COc1ccc(C(=O)NC2(C(=O)O)Cc3ccccc3C2)cc1OC/C=C/c1ccccc1 [Example 45]
1000 to 30000 nM | COc1ccc(C(=O)NC2(C(=O)O)Cc3ccccc3C2)cc1OCCc1ccccc1C(F)(F)F [Example 47]
1000 to 30000 nM | COc1ccc(C(=O)NC2(C(=O)O)Cc3ccccc3C2)cc1OCC1CCCN(C)C1 (stereo not drawn) [Example 48]
1000 to 30000 nM | CCN(CC)CCCOc1cc(C(=O)NC2(C(=O)O)Cc3ccccc3C2)ccc1OC [Example 49]
100 to 1000 nM | COc1ccc(C(=O)NC2(C(=O)O)Cc3ccccc3C2)cc1OCC1CC=CCC1 (stereo not drawn) [Example 50]
1000 to 30000 nM | COc1ccc(C(=O)NC2(C(=O)O)Cc3ccccc3C2)cc1OCc1nccc(Cl)c1OC [Example 52]
1000 to 30000 nM | COc1ccc(C(=O)NC2(C(=O)O)Cc3ccccc3C2)cc1OCCCC1CC(c2ccccc2)=NO1 (stereo not drawn) [Example 53]
1000 to 30000 nM | COc1ccc(C(=O)NC2(C(=O)O)Cc3ccccc3C2)cc1OCCc1cc(-c2ccc(Cl)cc2)no1 [Example 54]
1000 to 30000 nM | COc1ccnc(COc2cc(C(=O)NC3(C(=O)O)Cc4ccccc4C3)ccc2OC)c1 [Example 55]
1000 to 30000 nM | CCC1(COc2cc(C(=O)NC3(C(=O)O)Cc4ccccc4C3)ccc2OC)COCOC1 [Example 56]
1000 to 30000 nM | COc1ccc(C(=O)NC2(C(=O)O)Cc3ccccc3C2)cc1OCC1CCC(C)CC1 (stereo not drawn) [Example 57]

SMILES | IC50
C=CC1CN2CCC1CC2COc1cc(C(=O)NC2(C(=O)O)Cc3ccccc3C2)ccc1OC (stereo not drawn) [Example 58] | 1000 to 30000 nM
